Key:
PIK3CA (human) = PIK3CA (human) (UniProt P42336); experiment: Assessment of PIK3CA Kinase Activity
PIK3CB (Human) = PIK3CB (Human) (UniProt P42338); experiment: Assessment of PIK3CB Kinase Activity
PIK3CG (human) = PIK3CG (human) (UniProt P48736); experiment: Assessment of PIK3CG Kinase Activity
PIK3CD (Human) = PIK3CD (Human) (UniProt O00329); experiment: Assessment of PIK3CD Kinase Activity
Chain of PIK3CD (Human) (O00329 whole entry, looked up): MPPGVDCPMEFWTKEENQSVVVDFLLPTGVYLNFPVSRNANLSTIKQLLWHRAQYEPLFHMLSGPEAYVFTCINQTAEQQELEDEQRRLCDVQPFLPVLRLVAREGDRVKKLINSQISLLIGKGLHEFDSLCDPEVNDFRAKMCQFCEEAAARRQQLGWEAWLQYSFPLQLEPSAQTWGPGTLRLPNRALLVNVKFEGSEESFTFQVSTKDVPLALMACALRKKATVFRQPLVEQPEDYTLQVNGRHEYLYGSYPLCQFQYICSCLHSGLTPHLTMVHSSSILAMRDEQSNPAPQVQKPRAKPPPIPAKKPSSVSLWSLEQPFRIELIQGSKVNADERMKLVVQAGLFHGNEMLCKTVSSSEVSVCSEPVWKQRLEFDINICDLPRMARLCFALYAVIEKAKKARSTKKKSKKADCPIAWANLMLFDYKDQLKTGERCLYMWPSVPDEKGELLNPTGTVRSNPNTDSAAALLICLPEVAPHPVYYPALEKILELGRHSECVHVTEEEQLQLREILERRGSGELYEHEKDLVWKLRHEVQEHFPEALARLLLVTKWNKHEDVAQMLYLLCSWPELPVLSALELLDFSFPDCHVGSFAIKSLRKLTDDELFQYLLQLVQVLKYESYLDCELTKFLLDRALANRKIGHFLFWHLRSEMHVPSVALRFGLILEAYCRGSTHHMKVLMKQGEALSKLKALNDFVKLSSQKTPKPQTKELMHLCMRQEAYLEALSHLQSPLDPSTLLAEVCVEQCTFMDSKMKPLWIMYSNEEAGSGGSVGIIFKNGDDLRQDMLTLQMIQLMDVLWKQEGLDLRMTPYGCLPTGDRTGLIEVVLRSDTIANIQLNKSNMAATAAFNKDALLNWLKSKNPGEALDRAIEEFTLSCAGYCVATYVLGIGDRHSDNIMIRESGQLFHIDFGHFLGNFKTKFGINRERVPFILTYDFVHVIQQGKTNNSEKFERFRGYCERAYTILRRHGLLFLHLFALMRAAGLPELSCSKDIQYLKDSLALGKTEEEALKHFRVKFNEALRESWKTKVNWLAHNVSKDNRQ

Chain of PIK3CA (human) (P42336 whole entry, looked up): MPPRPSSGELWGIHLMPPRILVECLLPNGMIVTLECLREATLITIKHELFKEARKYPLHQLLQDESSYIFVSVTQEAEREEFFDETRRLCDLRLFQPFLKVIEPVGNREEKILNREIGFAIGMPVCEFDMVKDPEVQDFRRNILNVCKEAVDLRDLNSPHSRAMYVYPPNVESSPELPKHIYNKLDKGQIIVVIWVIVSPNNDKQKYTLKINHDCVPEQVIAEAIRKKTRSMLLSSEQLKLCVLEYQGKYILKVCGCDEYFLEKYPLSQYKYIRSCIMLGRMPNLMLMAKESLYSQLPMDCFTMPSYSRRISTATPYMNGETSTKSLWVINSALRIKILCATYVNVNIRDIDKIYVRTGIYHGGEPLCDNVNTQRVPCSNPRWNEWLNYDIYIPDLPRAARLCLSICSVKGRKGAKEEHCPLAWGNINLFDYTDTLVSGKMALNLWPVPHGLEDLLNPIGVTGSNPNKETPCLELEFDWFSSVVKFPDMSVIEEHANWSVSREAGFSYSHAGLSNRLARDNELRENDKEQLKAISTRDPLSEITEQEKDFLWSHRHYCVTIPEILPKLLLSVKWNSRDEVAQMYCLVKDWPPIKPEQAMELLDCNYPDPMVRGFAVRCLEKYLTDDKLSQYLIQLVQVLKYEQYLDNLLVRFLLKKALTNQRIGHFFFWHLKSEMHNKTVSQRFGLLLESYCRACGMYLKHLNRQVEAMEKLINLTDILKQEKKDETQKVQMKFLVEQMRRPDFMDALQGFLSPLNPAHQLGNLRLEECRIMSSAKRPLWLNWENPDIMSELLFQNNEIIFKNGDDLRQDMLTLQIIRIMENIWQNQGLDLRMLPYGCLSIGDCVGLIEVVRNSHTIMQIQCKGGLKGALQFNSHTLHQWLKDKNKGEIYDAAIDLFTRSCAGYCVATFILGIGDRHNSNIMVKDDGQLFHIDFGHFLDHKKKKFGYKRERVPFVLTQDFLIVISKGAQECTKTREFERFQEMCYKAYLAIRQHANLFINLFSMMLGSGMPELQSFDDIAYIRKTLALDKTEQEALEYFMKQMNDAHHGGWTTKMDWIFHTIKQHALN
Chain of PIK3CG (human) (P48736 whole entry, looked up): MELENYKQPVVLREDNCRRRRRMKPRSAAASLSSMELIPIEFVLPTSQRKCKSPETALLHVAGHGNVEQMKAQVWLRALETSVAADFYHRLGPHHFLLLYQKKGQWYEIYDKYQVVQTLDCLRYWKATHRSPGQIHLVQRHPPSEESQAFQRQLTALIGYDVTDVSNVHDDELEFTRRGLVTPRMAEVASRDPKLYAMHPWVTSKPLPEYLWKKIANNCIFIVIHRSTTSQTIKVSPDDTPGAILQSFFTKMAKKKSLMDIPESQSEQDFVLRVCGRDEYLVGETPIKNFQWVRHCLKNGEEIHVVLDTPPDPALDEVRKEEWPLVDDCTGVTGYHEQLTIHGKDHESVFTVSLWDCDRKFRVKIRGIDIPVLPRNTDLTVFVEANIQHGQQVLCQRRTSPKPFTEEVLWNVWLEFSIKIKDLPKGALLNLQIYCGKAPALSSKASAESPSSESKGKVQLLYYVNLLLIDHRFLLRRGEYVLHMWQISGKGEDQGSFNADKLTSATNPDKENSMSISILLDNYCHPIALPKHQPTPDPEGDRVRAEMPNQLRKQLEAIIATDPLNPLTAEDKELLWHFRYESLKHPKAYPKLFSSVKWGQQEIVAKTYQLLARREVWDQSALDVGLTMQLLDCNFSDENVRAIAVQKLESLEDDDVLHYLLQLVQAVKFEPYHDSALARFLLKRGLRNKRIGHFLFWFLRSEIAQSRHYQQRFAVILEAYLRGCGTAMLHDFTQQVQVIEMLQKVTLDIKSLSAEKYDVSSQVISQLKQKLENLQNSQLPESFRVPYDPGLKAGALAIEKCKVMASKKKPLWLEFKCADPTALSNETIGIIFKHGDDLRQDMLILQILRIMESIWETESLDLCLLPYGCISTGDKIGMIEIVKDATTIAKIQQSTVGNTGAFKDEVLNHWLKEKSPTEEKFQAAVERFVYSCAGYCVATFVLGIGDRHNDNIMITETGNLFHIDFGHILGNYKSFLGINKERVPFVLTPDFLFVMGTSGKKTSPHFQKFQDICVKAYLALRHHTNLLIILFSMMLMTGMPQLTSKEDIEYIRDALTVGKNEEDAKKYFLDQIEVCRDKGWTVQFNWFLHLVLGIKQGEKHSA
Chain of PIK3CB (Human) (P42338 whole entry, looked up): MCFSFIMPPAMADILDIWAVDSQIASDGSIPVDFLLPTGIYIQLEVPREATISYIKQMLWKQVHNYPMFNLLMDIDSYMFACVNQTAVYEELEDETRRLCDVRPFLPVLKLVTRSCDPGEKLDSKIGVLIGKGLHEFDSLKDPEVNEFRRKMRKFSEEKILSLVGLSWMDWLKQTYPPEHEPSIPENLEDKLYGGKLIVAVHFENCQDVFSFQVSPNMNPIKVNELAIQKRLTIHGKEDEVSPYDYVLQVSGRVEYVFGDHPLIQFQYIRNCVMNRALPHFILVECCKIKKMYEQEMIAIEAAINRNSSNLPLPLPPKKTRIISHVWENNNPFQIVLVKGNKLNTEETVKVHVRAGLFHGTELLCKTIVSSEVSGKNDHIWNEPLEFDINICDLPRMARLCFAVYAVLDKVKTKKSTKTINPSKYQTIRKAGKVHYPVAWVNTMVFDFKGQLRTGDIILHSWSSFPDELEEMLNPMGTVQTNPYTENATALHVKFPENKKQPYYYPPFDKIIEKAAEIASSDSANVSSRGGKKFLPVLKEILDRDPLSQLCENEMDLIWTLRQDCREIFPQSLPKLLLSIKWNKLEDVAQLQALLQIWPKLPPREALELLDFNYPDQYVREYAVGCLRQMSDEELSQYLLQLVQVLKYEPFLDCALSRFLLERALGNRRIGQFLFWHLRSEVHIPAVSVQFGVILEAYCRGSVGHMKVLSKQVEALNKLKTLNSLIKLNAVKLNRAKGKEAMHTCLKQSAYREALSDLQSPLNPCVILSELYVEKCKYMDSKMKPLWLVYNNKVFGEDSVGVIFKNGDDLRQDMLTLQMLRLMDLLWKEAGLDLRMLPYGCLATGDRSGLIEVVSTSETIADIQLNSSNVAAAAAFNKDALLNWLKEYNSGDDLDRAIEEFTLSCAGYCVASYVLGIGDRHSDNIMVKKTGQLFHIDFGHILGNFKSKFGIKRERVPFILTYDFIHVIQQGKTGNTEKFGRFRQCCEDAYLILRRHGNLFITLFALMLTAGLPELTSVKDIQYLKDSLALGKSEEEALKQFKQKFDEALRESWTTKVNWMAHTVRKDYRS

Row | SMILES | IC50 (PIK3CA (human)) | also measured
1 | O=C(NO)c1cnc(NCc2cc3nc(-c4cccc5[nH]ncc45)nc(N4CCOCC4)c3s2)nc1 | < 100 nM | IC50 (PIK3CB (Human)): < 100 nM; IC50 (PIK3CG (human)): < 100 nM; IC50 (PIK3CD (Human)): < 100 nM
2 | CC1CN(c2nc(-c3cccc4[nH]ncc34)nc3cc(CN(C)c4ncc(C(=O)NO)cn4)sc23)CC(C)O1 (stereo unspecified) | 100 to 1000 nM | –
3 | O=C(NO)c1cnc(N2CCN(Cc3cc4nc(-c5cccc6[nH]ncc56)nc(N5CCOCC5)c4s3)CC2)nc1 | < 100 nM | IC50 (PIK3CB (Human)): < 100 nM; IC50 (PIK3CG (human)): < 100 nM; IC50 (PIK3CD (Human)): 100 to 1000 nM
4 | CN(C)CCN(Cc1cc2nc(-c3cccc4[nH]ncc34)nc(N3CCOCC3)c2s1)c1ncc(C(=O)NO)cn1 | < 100 nM | –
5 | Nc1ccc(-c2nc(N3CCOCC3)c3sc(CN4CCN(c5ncc(C(=O)NO)cn5)CC4)cc3n2)cc1 | 100 to 1000 nM | –
6 | O=C(NO)c1cnc(N(CCCO)Cc2cc3nc(-c4cccc5[nH]ncc45)nc(N4CCOCC4)c3s2)nc1 | < 100 nM | –
7 | O=C(CCCCCCN1CCN(Cc2cc3nc(-c4cccc5[nH]ncc45)nc(N4CCOCC4)c3s2)CC1)NO | 100 to 1000 nM | –
8 | CN(Cc1cc2nc(-c3cnc(N)nc3)nc(N3CCOCC3)c2s1)c1ncc(C(=O)NO)cn1 | < 100 nM | –
9 | CN(Cc1cc2nc(-c3cc(F)cc4[nH]ncc34)nc(N3CCOCC3)c2s1)c1ncc(C(=O)NO)cn1 | < 100 nM | –
10 | CN(Cc1cc2nc(-c3cccc(C(N)=O)c3)nc(N3CCOCC3)c2s1)c1ncc(C(=O)NO)cn1 | 100 to 1000 nM | –
11 | CC(C)CN(Cc1cc2nc(-c3cccc4[nH]ncc34)nc(N3CCOCC3)c2s1)c1ncc(C(=O)NO)cn1 | 100 to 1000 nM | –
12 | O=C(CCCCCN1CCN(Cc2cc3nc(-c4cccc5[nH]ncc45)nc(N4CCOCC4)c3s2)CC1)NO | < 100 nM | –
13 | NCCN(Cc1cc2nc(-c3cccc4[nH]ncc34)nc(N3CCOCC3)c2s1)c1ncc(C(=O)NO)cn1 | < 100 nM | –
14 | CC(c1cc2nc(-c3cccc4[nH]ncc34)nc(N3CCOCC3)c2s1)N(C)c1ncc(C(=O)NO)cn1 (stereo unspecified) | < 100 nM | –
15 | CN(Cc1cc2nc(-c3cccc4[nH]ncc34)nc(N3CCOCC3)c2s1)c1ncc(C(=O)NO)cn1 | < 100 nM | IC50 (PIK3CB (Human)): < 100 nM; IC50 (PIK3CG (human)): < 100 nM; IC50 (PIK3CD (Human)): < 100 nM
16 | CN(Cc1cc2nc(-c3cccc(CO)c3)nc(N3CCOCC3)c2s1)c1ncc(C(=O)NO)cn1 | < 100 nM | –
17 | CCCCN(Cc1cc2nc(-c3cccc4[nH]ncc34)nc(N3CCOCC3)c2s1)c1ncc(C(=O)NO)cn1 | 100 to 1000 nM | –
18 | CCN(Cc1cc2nc(-c3ccc(N)cc3)nc(N3CCOCC3)c2s1)c1ncc(C(=O)NO)cn1 | 100 to 1000 nM | –
19 | O=C(CCCNCc1cc2nc(-c3cccc4[nH]ncc34)nc(N3CCOCC3)c2s1)NO | 100 to 1000 nM | –
20 | CN(Cc1cc2nc(-c3ccc(N)nc3)nc(N3CCOCC3)c2s1)c1ncc(C(=O)NO)cn1 | < 100 nM | –
21 | COCc1cccc(-c2nc(N3CCOCC3)c3sc(CN(C)c4ncc(C(=O)NO)cn4)cc3n2)c1 | 100 to 1000 nM | –

Row | SMILES | IC50 (PIK3CA (human)) | also measured
22 | O=C(C=Cc1cc2nc(-c3cccc4[nH]ncc34)nc(N3CCOCC3)c2s1)NO | 100 to 1000 nM | –
23 | CN(Cc1cc2nc(-c3ccc(N)cc3)nc(N3CCOCC3)c2s1)c1ccc(C(=O)NO)cc1 | 100 to 1000 nM | –
24 | CN(Cc1cc2nc(-c3cccc4[nH]ncc34)nc(N3CCOCC3)c2s1)c1ccc(/C=C/C(=O)NO)cc1 | < 100 nM | –
25 | Nc1ccc(-c2nc(N3CCOCC3)c3sc(CNCc4ccc(/C=C/C(=O)NO)cc4)cc3n2)cc1 | 100 to 1000 nM | –
26 | O=C(NO)c1ccc(NCc2cc3nc(-c4cccc5[nH]ncc45)nc(N4CCOCC4)c3s2)cc1 | 100 to 1000 nM | –
27 | O=C(CCCCCCNc1cc2nc(-c3cccc4[nH]ncc34)nc(N3CCOCC3)c2s1)NO | 100 to 1000 nM | –
28 | CN(Cc1cc2nc(-c3ccc4[nH]ccc4c3)nc(N3CCOCC3)c2s1)c1ncc(C(=O)NO)cn1 | 100 to 1000 nM | –
29 | CN(CCCC(=O)NO)Cc1cc2nc(-c3cccc4[nH]ncc34)nc(N3CCOCC3)c2s1 | 100 to 1000 nM | –
30 | CN(Cc1cc2nc(-c3cnc(CN)nc3)nc(N3CCOCC3)c2s1)c1ncc(C(=O)NO)cn1 | < 100 nM | –
31 | Cc1ccc(-c2nc(N3CCOCC3)c3sc(CN(C)c4ncc(C(=O)NO)cn4)cc3n2)cc1 | 100 to 1000 nM | –
32 | Cn1cc(CNc2cc3nc(-c4cccc5[nH]ncc45)nc(N4CCOCC4)c3s2)c2cc(C(=O)NO)ccc21 | < 100 nM | –
33 | O=C(NO)c1cnc(N(CCO)Cc2cc3nc(-c4cccc5[nH]ncc45)nc(N4CCOCC4)c3s2)nc1 | < 100 nM | IC50 (PIK3CB (Human)): < 100 nM
34 | N#CCCN(Cc1cc2nc(-c3cccc4[nH]ncc34)nc(N3CCOCC3)c2s1)c1ncc(C(=O)NO)cn1 | < 100 nM | –
35 | CC(C)(C)CN(Cc1cc2nc(-c3cccc4[nH]ncc34)nc(N3CCOCC3)c2s1)c1ncc(C(=O)NO)cn1 | 100 to 1000 nM | –
36 | Cc1nc(N)ncc1-c1nc(N2CCOCC2)c2sc(CN(C)c3ncc(C(=O)NO)cn3)cc2n1 | < 100 nM | –
37 | CC(=O)Nc1ccc(-c2nc(N3CCOCC3)c3sc(CN(C)c4ncc(C(=O)NO)cn4)cc3n2)cn1 | < 100 nM | –
38 | O=C(C=Cc1ccc(S(=O)(=O)Nc2cc3nc(-c4cccc5[nH]ncc45)nc(N4CCOCC4)c3s2)cc1)NO | < 100 nM | –
39 | CCN(Cc1cc2nc(-c3cccc4[nH]ncc34)nc(N3CCOCC3)c2s1)c1ncc(C(=O)NO)cn1 | < 100 nM | –
40 | COCCN(Cc1cc2nc(-c3cccc4[nH]ncc34)nc(N3CCOCC3)c2s1)c1ncc(C(=O)NO)cn1 | < 100 nM | –
41 | CC(=O)OCCN(Cc1cc2nc(-c3cccc4[nH]ncc34)nc(N3CCOCC3)c2s1)c1ncc(C(=O)NO)cn1 | < 100 nM | –

— the Kinase Knowledgebase extract (Sharma et al. 2016)
